# Measured values taken from patent US8507547B2, “Anti-fatigue agents and oral compositions containing andrographolide as active ingredient” (Suntory Holdings Limited, priority 2007, dated 2013).
# Test system: Balb/c mice
# Assay: Water-immersion and sleep-disturbance test (weight-loaded forced swimming test, swimming time)
# Format: in vivo
# Source text: The first test is measurement of a swimming time in a water-immersion and sleep-disturbance test. This is described in detail below in Example 1. Mice raised in an environment, such as a water-immersed environment, where they were not allowed to take enough sleep or to take a comfortable posture so that they could take neither physical nor mental rest were weighted and forced to swim, and a length of time that passed until noses of the mice sank under the water for a period of 10 seconds or longer was measured (weight-loaded forced swimming test) to determine their fatigue level.
# That is to say, since this animal model is a physical and mental fatigue model as well as an organ fatigue model described below, anti-fatigue action against physical and/or mental fatigue would be confirmed if the swimming time becomes longer as a result of administration of the test substance. Such anti-fatigue action is considered to be involved in reduction in fatigue stress, maintenance of physical energy under fatigue conditions (enhancement of body strength), improvement in endurance, and the like.
# Effect of andrographolide on fatigue from water immersion and sleep disturbance was examined using a partially modified method of Tanaka et al. (Neuroscience Let. 352, 159-162, 2003). […] Four out of the five groups were reared as water-immersed groups; the groups were kept in cages in such a manner that each of the cages was filled with tap water at 23° C. with a water depth of 7 mm, instead of a floor covering, so that the mice were immersed in water and deprived of sleep. The mice were immersed in water for two days, andrographolide (Aldrich corp., purity 98%) was forcibly administered orally to the mice with doses of 0.5, 2, 8 mg per kilogram of body weight once daily during the two days (water-immersed and andrographolide-administered group). As a control group, one of the groups was immersed in water for two days, and distilled water was forcibly given orally to the group once daily during the two days (water-immersed control group). The remaining one of the five groups was reared as a normally-reared group; this group was kept in a cage with a normal floor covering, and distilled water was forcibly given orally to the group once daily during the two-day rearing (normally-reared control group). After the two days, each of the mice was provided with a weight corresponding to 8% of its body weight, which weight was attached to its tale, and then the mice were forced to swim in a water tank having a diameter of 18 cm and filled with water having a depth of 30 cm. A length of time that passed until the mice sank under water for a period of 10 seconds or longer (swimming time) was measured (weight-loaded forced swimming test).
# The swimming time of the mice of the water-immersed group was shorter than that of the mice of the normally-reared group because of fatigue from the water immersion and sleep disturbance. The effect of andrographolide on the fatigue from the water immersion and sleep disturbance was examined by determining recovery of a reduction in the swimming time of the mice of the water-immersed group after the administration of andrographolide.
# In accordance with the procedure described in Example 1, effect on water-immersion and sleep-disturbance fatigue was examined in a case in which andrographolide was administered alone to mice, a case in which alpha-lipoic acid was administered alone to mice, and a case in which a combination of andrographolide and alpha-lipoic acid was administered to mice. Eight-week-old male Balb/c mice were used as a test animal. […] Four out of the five groups served as water-immersed groups, and each of the groups was kept in a cage filled with tap water at 23° C. with a water depth of 7 mm, instead of a floor covering, so that the mice were immersed in water and deprived of sleep. […]
smiles,measurement,setting,value
"O=C(O)CCCCC1CCSS1 (stereo not drawn) [alpha-lipoic acid, 1,2-dithiolane-3-pentanoic acid, reference compound]",shortening of the swimming time,"Example 5, FIG. 5, andrographolide 0.25 mg/kg (5a), alpha-lipoic acid 50 mg/kg (5b) or both (5c), orally once daily during two days of water immersion",prevented from shortening
same,increase rate of the swimming time,"Example 5, swimming time of normally-reared group minus water-immersed control group = 100%, andrographolide 0.25 mg/kg, alpha-lipoic acid 50 mg/kg, alone or combined",13%
same,anti-fatigue action in the fatigue animal model of mice,"alpha-lipoic acid 50 mg/kg alone or with andrographolide 0.25 mg/kg, during fatigue stress",anti-fatigue action was produced
